Experiments:
[1] = Body weight of experimental animals in the PC-3 tumor study; format: in vivo, athymic nude (nu/nu) mice; settings: nude mice bearing PC3 tumors; intratumoral Ad-BSP-TK; GCV 40 mg/kg i.p.
Description: FIG. 10 represents an in vivo experiment performed with 16 animals. Briefly, congenitally athymic nude (nu/nu) mice (Harlan Co., Houston, Tex.) 5 to 6 weeks of age, were inoculated s.c. with 2 million PC3 prostate cancer cells. When the tumor became palpable (4-5 mm in diameter), approximately 10 days after cell injection, the animals were randomly assigned to four experimental groups: group: 1, control group with no treatment; 2, intratumoral PBS on days 10, 17, 24 and 30; 3, Ad-BSP-TK only; and 4, Ad-BSP-TK plus GCV given on days 10-40. For Ad-BSP-TK injections, a microliter syringe fitted with a 28 gauge needle was used to deliver 75 μl of Ad-BSP-TK (1×10^9 plaque-forming units). The Ad-BSP-TK was injected intratumorally along both the long and short axes of the tumor; one injection parallel to the long axis, and one perpendicular to the axis. The needle point was then rotated within the tumor to maximize the area of Ad delivery. Tumor volume was calculated by the following formula: volume (a rotational ellipsoid)-M1xM2^2×0.5236 (M1, long axis; M2, short axis; Ko. S-C., Gotoh, A., Thalmann, G. N., Zhou, H. E., Johnston, D. A, Zhang, W. W., Kao, C., and Chung, L. W. K. Molecular therapy with recombinant p53 adenovirus in an androgen independent, metastatic human prostate cancer model. Hum. Gene Ther., 7:1683-1691, 1996). […]

[2] = tested on: BSP promoter; assay: BSP promoter-driven luciferase reporter activity in transfected cells; format: cell-based, human; settings: mineralization conditions versus T media, 2186 base pair construct
Method: Cells ([…]) were exposed to a BSP promoter-luciferase vector (2.5 ug) with liposome mediated transfection for 4-6 hours, then allowed to grow approximately 2 days at which time cell lysates were obtained and assayed for relative luciferase activity (RLU). All values were standardized with cotransfection of CMV-betagalactosidase reporter plasmid (0.5 ug).

SMILES | effect on body weight [1] | BSP promoter expression as RLU ([2]; C4-2B4) | BSP promoter expression as RLU ([2]; Du-145) | BSP promoter expression as RLU ([2]; PC-3)
Nc1nc(O)c2ncn(COC(CO)CO)c2n1 [GCV, Gancyclovir] | did not adversely affect the body weight | – | – | –
O=C1O[C@H]([C@@H](O)CO)C(O)=C1O [L-ascorbic acid] | – | hightened response | hightened response | hightened response

From patent US20020025307A1, “Bone sialoprotein based toxic gene therapy for the treatment of calcified tumors and tissues” (priority 1998, published 2002)
